Laboratory results published in article PMC5693604 (Cell chemical biology, 2017).

Tests used:
Format in all cases: cell-based
[1] = biological target: T1, NT5DC1 (5'-Nucleotidase-Domain Containing 1) (Homo sapiens, UniProt Q5TFE4); test: competitive gel-based ABPP with probe […] in HEK293T cells
T1 sequence (Q5TFE4 1-455): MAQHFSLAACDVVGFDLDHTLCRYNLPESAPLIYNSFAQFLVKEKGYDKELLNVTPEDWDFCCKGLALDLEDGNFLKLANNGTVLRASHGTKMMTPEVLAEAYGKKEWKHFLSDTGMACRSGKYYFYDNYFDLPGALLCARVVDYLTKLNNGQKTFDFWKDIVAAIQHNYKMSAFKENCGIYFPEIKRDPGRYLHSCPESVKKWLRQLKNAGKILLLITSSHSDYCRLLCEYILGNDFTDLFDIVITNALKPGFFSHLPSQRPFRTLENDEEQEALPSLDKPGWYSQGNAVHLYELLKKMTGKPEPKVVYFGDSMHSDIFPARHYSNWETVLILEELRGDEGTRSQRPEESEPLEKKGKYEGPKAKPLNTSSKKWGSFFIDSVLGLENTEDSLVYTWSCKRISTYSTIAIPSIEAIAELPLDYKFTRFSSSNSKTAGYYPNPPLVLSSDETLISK

CHEK2 [2] = biological target: T2, CHEK2 (Homo sapiens, UniProt O96017); test: FRET Z'-LYTE kinase assay
T2 sequence (O96017 whole entry): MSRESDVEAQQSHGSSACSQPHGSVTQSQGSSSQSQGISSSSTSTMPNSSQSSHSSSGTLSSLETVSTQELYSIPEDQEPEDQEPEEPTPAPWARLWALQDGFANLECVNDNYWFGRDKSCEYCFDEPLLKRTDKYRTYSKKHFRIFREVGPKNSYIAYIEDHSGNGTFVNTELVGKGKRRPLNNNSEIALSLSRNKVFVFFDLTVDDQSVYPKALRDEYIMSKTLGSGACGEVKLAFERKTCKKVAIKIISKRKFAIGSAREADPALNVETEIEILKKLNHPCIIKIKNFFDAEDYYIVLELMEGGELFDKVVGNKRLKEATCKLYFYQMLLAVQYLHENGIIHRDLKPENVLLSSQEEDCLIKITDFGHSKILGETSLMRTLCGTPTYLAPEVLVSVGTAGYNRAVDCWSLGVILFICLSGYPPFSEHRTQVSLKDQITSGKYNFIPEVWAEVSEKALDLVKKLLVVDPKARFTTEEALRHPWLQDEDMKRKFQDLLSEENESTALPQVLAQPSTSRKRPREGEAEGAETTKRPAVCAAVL

CHEK2 [3] = biological target: T2, CHEK2; test: competitive gel-based ABPP with probe […] in HEK293T cells

Row | IC50 (CHEK2 [3]) | SMILES | IC50 [1] | IC50 (CHEK2 [2])
1 | – | C=CC(=O)Nc1cccc(Nc2nc(Nc3ccc(N4CCN(C(C)=O)CC4)cc3OC)ncc2C(F)(F)F)c1 [compound 3, rociletinib] | ~360 nM | 350 nM
2 | ~4000 nM | C=CC(=O)N[C@@H]1CN(c2nc(Nc3cn(C)nc3OC)c3ncn(C)c3n2)C[C@H]1F [compound 2, N-((3R,4R)-4-Fluoro-1-(6-((3-methoxy-1-methyl-1H-pyrazol-4-yl)amino)-9-methyl-9H-purin-2-yl)pyrrolidine-3-yl)acrylamide] | – | –
